Test results from PMC340942, “Engineered Biosynthesis of Regioselectively Modified Aromatic Polyketides Using Bimodular Polyketide Synthases” (PLoS Biology, 2004).
In brackets after ≈: the same amount, converted by molar mass.

Key:
[1] = target: T1, glucose-6-phosphate translocase (Rattus norvegicus, UniProt F7EWB7); settings: rat liver microsomes; reference inhibitor, source not given; read-out: IC50, chlorogenic acid used as reference in the G6Pase assay; cited from earlier work
T1 construct: using intact male rat liver microsomes; tissue BD Gentest (Becton Dickinson); host or cells: male Sprague Dawley rat liver microsomes
T1 sequence (F7EWB7 1-429): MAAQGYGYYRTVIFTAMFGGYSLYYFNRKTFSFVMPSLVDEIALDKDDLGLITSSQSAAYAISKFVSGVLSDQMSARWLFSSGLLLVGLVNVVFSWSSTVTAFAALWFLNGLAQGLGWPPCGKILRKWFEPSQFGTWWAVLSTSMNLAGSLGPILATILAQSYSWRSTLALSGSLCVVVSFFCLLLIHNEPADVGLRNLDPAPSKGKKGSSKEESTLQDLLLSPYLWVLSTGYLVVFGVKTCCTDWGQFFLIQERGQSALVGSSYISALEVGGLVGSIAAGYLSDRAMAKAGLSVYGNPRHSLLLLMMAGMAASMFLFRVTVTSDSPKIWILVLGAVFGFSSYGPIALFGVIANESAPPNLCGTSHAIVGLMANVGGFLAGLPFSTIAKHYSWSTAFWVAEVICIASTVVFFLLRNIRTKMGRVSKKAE

[2] = test system: human mammary adenocarcinoma MCF-7 cells; experiment: Cytotoxicity against MCF-7 cells (colorimetric MTT assay); type: cell-based; settings: MCF7, 120 h, IC50 recorded after 5 d of drug addition, read-out: IC50, cytotoxic activity against MCF-7 cells
Experimental: As described above, the biosynthetic engineering methods reported here have yielded practical routes for the production of several new as well as known anthraquinone compounds. Given the track record of this family of natural products as pharmacologically active molecules, compounds 3, 4, 9, and DMAC were assayed for cytotoxic activities against human mammary adenocarcinoma MCF-7 cells. Apoptosis was observed after 24 h of drug treatment, and IC50 values were recorded after 5 d of drug addition. […] Thus inserting the hydroxyl group at C-9 results in a 10-fold increase in cytotoxic activity.
The studies were performed as described by Hori et al (1993). The cells were maintained at 37°C and growth was measured with the colorimetric MTT assay after each day. The IC50 values were measured after 5 d.

[3] = target: T1, glucose-6-phosphate translocase; experiment: G6Pase activity assay in intact male rat liver microsomes (colorimetric inorganic phosphate); type: biochemical; settings: for Inhibition of G6Pase activity of the microsome (Figure 7B): 1 mM glucose-6-phosphate; for Inhibition of G6Pase activity: 10–50 μM range
Experimental: Recently, the natural product mumbaistatin (Figure 7A) was identified as an extremely potent inhibitor (IC50 = 5 nM) of the glucose-6-phosphate translocase enzyme complex, an attractive target for the treatment of Type II diabetes ([Vertesy et al. 2001]). The core of mumbaistatin consists of an anthraquinone moiety that is related to several engineered compounds discussed in this report. For example, the carboxylic acid at position C-1 and the reduced C-9 are identical to those present in compounds DMAC, 8, and 9. We tested the inhibitory activities of some of these polyketides against glucose-6-phosphate translocase using intact male rat liver microsomes.
The integrity of the microsomes was first verified by comparing the glucose-6-phosphatase (G6Pase) activity in the presence of either glucose-6-phosphate or mannose-6-phosphate.
Male rat liver microsome (Sprague Dawley) was purchased from BD Gentest^TM (Becton Dickinson, Franklin Lakes, New Jersey, United States). Aliquots (100 μl, 2 mg/ml) in 0.25 M sucrose were stored at –80°C. Compound stock solutions were prepared in 95% ethanol and diluted with DMSO. Glucose-6-phosphate and mannose-6-phosphate were purchased from Sigma (St. Louis, Missouri, United States).
The integrity of microsomes and G6Pase activity was measured based on the colorimetric reaction of inorganic phosphate as previously reported ([Arion 1989]). The enzyme reaction was initiated by adding 3 μl of microsome to the reaction mixture, which contained 51 μl of assay buffer (50 mM HEPES, 100 mM KCl, 2.5 mM EDTA, 2.5 mM MgCl2, and 1 mM DTT at pH 7.2), 3 μl of glucose-6-phosphate (final concentration, 1 mM), and 3 μl of inhibitor sample in DMSO. The reaction mixture was incubated at room temperature, and 13 μl of reaction mixture was taken every 10 min and quenched with 117 μl of working solution (6:2:1 mixture of 0.42% ammonium molybdate tetrahydrate in 1N H2SO4, 10% SDS in water, and 10% ascorbic acid in water). The blue reduced phosphomolybdate complex is formed after incubation at 50°C for 20 min. The absorbance was measured at 820 nm.

[4] = test system: human mammary adenocarcinoma MCF-7 cells; set-up: method as in Hori et al. 1993; settings: ref Hori et al. 1993; cited from earlier work
[5] = Stability of purified compounds at room temperature; type: physicochemical
[6] = target: glucose-6-phosphate translocase enzyme complex; set-up: method as in Vertesy et al. 2001; settings: ref Vertesy et al. 2001; cited from earlier work

| SMILES | Inhibition of G6Pase activity of the microsome (Figure 7B) [3] | Inhibition of G6Pase activity [3] | IC50 [2] [µg/mL] | further results |
| --- | --- | --- | --- | --- |
| O=C(/C=C/c1ccc(O)c(O)c1)O[C@@H]1C[C@](O)(C(=O)O)C[C@@H](O)[C@H]1O [chlorogenic acid] | – | – | – | IC50 [1]: 260 µM |
| Cc1c(C(=O)O)c(O)cc2c1C(=O)c1c(O)cccc1C2=O [DMAC, 3,8-dihydroxy-methylanthraquinone carboxylic acid, reference compound] | No inhibition | not | 26.9 (≈ 90.2 µM) | – |
| CC(C)CCc1cc(O)cc2c1C(=O)c1c(O)cc(O)cc1C2=O [Compound 6, R1128c] | – | – | – | IC50, cytotoxic activity against MCF-7 cells (natural products) [4]: 6.2 µg/mL (≈ 19 µM) |
| CCCCc1cc(O)cc2c1C(=O)c1c(O)cc(O)cc1C2=O [Compound 5, R1128b] | – | – | – | IC50, cytotoxic activity against MCF-7 cells (natural products) [4]: 9.5 µg/mL (≈ 30.4 µM) |
| CCCCC1=C(c2cc(O)cc(=O)o2)C(=O)CC(O)C1 (stereo not shown) [Compound 1] | – | – | – | Stability of the purified compound [5]: slowly dehydrate |
| CC(C)CCC1=C(c2cc(O)cc(=O)o2)C(=O)CC(O)C1 (stereo not shown) [Compound 2] | – | – | – | Stability of the purified compound [5]: slowly dehydrate |
| O=C(O)CC(O)CCC(=O)c1cccc(O)c1C(=O)c1c(C(=O)O)c(O)cc2c1C(=O)c1c(O)cccc1C2=O (stereo not shown) [mumbaistatin] | – | – | – | IC50 [6]: 0.005 µM |

More lines, main results first:

| Inhibition of G6Pase activity of the microsome (Figure 7B) [3] | Inhibition of G6Pase activity [3] | SMILES | IC50 [2] [µg/mL] | further results |
| --- | --- | --- | --- | --- |
| Dose-dependent inhibition | Dose-dependent inhibition | CC(C)CCc1c(C(=O)O)c(O)cc2c1C(=O)c1c(O)cc(O)cc1C2=O [Compound 4] | 1.7 (≈ 4.59 µM) | – |
| Dose-dependent inhibition | Dose-dependent inhibition | CC(C)CCc1c(C(=O)O)c(O)cc2c1C(=O)c1c(O)cccc1C2=O [Compound 9] | 21.7 (≈ 61.2 µM) | – |
| Dose-dependent inhibition | Dose-dependent inhibition | CCCCc1c(C(=O)O)c(O)cc2c1C(=O)c1c(O)cc(O)cc1C2=O [Compound 3] | 3.4 (≈ 9.54 µM) | – |
| No inhibition | not | Cc1c(C(=O)O)c(O)cc2c1C(=O)c1c(O)cc(O)cc1C2=O [Compound 7, 3,6,8-trihydroxy-1-methylanthraquinone-2-carboxylic acid] | – | – |
| Dose-dependent inhibition | Dose-dependent inhibition | CCCCc1c(C(=O)O)c(O)cc2c1C(=O)c1c(O)cccc1C2=O [Compound 8] | – | – |
